This passage reports IC50 results from EP2112152A1, “Dihydropteridinones as Plk Inhibitors” (GPC Biotech AG, priority 2008, dated 2009).

The structures appear in SMILES notation. Where two headings read alike, the source gives them in different places.

What all share (type): cell-based
For test [1], the system named is HT-29. As to the kind of experiment: SRB cell proliferation assay, HT-29. Particulars: Homo sapiens, 72 hours, SRB assay, read-out: CELLULAR IC50 HT-29. The procedure: (§1) We observed the surprising finding that compounds of the invention were useful in inhibiting proliferation of tumor cell lines (see Table 3).
(§2) Cells were exposed to the test compounds at various concentrations appropriate to determine an IC50 for 72 hours. Cell proliferation was measured using the SRB assay according to Shekan et al (J Natl Cancer Inst (1990) 82, 1107-112) in order to estimate the IC50 values shown in Table 3. Briefly, cells were plated in 96 well dishes 24 hours prior to compound addition at the densities specified in Table 5.1. The assay was terminated with the addition of cold TCA to a final concentration of 10% after growth medium has been removed and the plates were incubated over night at 4°C. The plates were then washed 5 times with water and 100µl of a Sulforhodamine B solution (4%) was added to each well. The plates were then incubated for 10 minutes at room temperature before removal of unbound dye by washing with 1% acetic acid. The bound dye was solubilised with 10 mM Trizma base and the absorbance read at OD520.
(§3) Inhibitory activity of the compounds (IC) was calculated as % inhibition of cell proliferation compared to cells treated with the solvent (DMSO).
(§4) Table 8.1: 18-Cell Line Panel

Test [2] deals with HCT 116. As to the kind of experiment: SRB cell proliferation assay, HCT 116. Particulars: Homo sapiens, 72 hours, SRB assay, read-out: CELLULAR IC50 HCT 116. The procedure: as §1, §2, §3, §4
A general note: Sulforhodamine B stains cellular protein and so reports cell mass.

Test [3] addresses Plk1 (Homo sapiens, UniProt P53350). The experiment in a line: Cellular Plk1 kinase activity: nucleophosmin (B23) Ser4 phosphorylation in HCT116 cells (MSD electrochemiluminescence). Details: host or cells: HCT116. The following applies: 100 ng/ml nocodazole, 4 hours after compound addition, read-out: Biochemical IC50 Nucleophosmin assay. The procedure:
We observed the surprising finding that compounds of the invention were able to penetrate cell membranes and retained their activity as Plk1 inhibitors against native Plk1 expressed within living cancer cells.
Cellular Plk1 kinase activity was measured by quantification of nucleophosmin (B23) Ser4 phosphorylation in a cancer cell line. Nucleophosmin (B23) Ser4 is phosphorylated by Plk1, and this phosphorylation can be specifically detected by cross-reactivity of a phospho-Mek1/2 antibody that is able to recognizes a mitotic-specific phosphorylated form of nucleophosmin (B23) in a nocodazole dependent way (Zhang, H., Shi, X., Paddon, H., Hampong, M., Dai, W., and Pelech, S. (2004) B23/Nuleophosmin Serin 4 Phosphorylation Mediates Mitotic Functions of Polo-like Kinase 1. J. Biol. Chem., 279(34), 35726-35734).
Briefly, HCT116 cells (ATCC, Order No. CCL-247) were plated in 96 well dishes 24 hours prior to nocodazole treatment at 25 000 cells per well. Cells were then treated with 100 ng/ml nocodazole (Sigma-Aldrich, # M1404). 20 hours after nocodazole treatment, cells were exposed to the test compounds at various concentrations appropriate to determine an IC50. 4 hours after compound addition, medium was carefully removed and 120 µl of Complete Tris Lysis Buffer (R60TX; MSD, Gaithersburg MD) was added to each well. Samples were then stored at -20°C.
The level of nucleophosmin (B23) Ser4 phosphorylation in these cell lysis samples was estimated by electrochemiluminescence detection using the Meso Scale Discovery ("MSD") Technology Platform (MSD, Gaithersburg MD). The protocol used was as recommended by the manufacturer with the use of a phospho-Mek1/2 antibody (Cell Signalling, #9121) as primary antibody, and is as follows.
The cell lysates were thawed at room temperature and 40 µl were incubated on 96-well MULTI-ARRAY High Bind plates (L11XB; MSD) for 1.5 - 2 hours at room temperature. The supernatants were then removed and 150 µl of a 5% (w/v) solution of Blocker A (R93AA; MSD) in Tris Wash Buffer (R61TX; MSD) were added to each well. The plates were then incubated for 1 hour at room temperature before removal of the Blocker A solution and washed 4 times with 200 µl Tris Wash Buffer. 25 µl primary antibody (anti-phospho-MEK1/2, Cell Signalling, #9121, rabbit polyclonal), diluted 1:250 in a 1% (w/v) solution of Blocker A in Tris Wash Buffer, were added to each well. The plates were then incubated for 1 hour at room temperature before removal of the antibody solution and washed 4 times with 200 µl Tris Wash Buffer. Then, 25 µl of labelled secondary antibody (SULFO-TAG Goat Anti-Rabbit IgGAntibody (R32AB; MSD), diluted 1:500 in a 1% (w/v) solution of Blocker A in Tris Wash Buffer) were added to each well. The plates were then incubated for 1 hour at room temperature before removal of the antibody solution and washed 4 times with 200 µl Tris Wash Buffer. Then, […] of 1x Read Buffer T (R92TC; MSD) were carefully added to each well and the plates were quantitatively detected for each well with a SECTOR™ Imager 6000 (MSD).
Inhibitory activity of the compounds (IC) was calculated as % inhibition of nucleophosmin (B23) Ser4 phosphorylation compared to cells not treated with nocodazole.

For test [4], the system named is IMR-90. The experiment in a line: SRB cell proliferation assay, IMR-90. The following applies: Homo sapiens, 72 hours, SRB assay, slow cycling cell line, read-out: CELLULAR IC50 IMR-90. The procedure: as §1, §2, §3, §4

Chain of Plk1 (P53350 whole entry, species assumed): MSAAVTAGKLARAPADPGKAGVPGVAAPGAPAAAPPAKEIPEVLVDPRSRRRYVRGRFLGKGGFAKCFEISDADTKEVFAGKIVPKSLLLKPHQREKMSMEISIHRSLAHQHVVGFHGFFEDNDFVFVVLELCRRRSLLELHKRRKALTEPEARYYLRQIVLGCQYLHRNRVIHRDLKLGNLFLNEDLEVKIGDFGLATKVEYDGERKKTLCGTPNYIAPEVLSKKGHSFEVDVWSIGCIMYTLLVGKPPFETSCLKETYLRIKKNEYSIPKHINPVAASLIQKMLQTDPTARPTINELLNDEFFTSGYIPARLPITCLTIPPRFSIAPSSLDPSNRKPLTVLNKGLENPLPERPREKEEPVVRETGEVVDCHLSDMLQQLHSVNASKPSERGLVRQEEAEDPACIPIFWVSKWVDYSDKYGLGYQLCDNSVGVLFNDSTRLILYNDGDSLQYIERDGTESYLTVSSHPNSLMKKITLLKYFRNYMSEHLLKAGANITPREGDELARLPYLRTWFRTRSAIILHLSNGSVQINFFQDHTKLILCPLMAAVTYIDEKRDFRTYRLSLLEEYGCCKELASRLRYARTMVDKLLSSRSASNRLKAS

The IC50 is the concentration that inhibits the measured activity by half. Take `CCC1C(=O)N(C)c2cnc(Nc3ccc(C(=O)NC4CCN(C)CC4)cc3OC)nc2N1NC` (stereo not shown) [Compound 30, 4-(7-Ethyl-5-methyl-8-methylamino-6-oxo-5,6,7,8-tetrahydro-pteridin-2-ylamino)-3-methoxy-N-(1-methyl-piperidin-4-yl)-benzamide]: the IC50 in test [1] (HT-29, 72 h) is less than 1000 nM; in test [2] (HCT-116, 72 h), less than 1000 nM; in test [3], less than 100 nM; in test [4] it was greater than 1000 nM.
Regarding `CCC1C(=O)N(C)c2cnc(Nc3ccc(C(=O)NC4CCN(C)CC4)cc3OC)nc2N1N(C)CC(C)C` (stereo not shown) [Compound 22, 4-[7-Ethyl-8-(isobutyl-methyl-amino)-5-methyl-6-oxo-5,6,7,8-tetrahydro-pteridin-2-ylamino]-3-methoxy-N-(1-methyl-piperidin-4-yl)-benzamide], the IC50 in test [1] (HT-29, 72 h) was less than 1000 nM; in test [2] (HCT-116, 72 h), less than 1000 nM; in test [3], less than 100 nM; in test [4], greater than 1000 nM.
For `CCC1C(=O)N(C)c2cnc(Nc3ccc(C(=O)N[C@H]4CC[C@H](N5CCN(CC6CC6)CC5)CC4)cc3OC)nc2N1N(C)CC1CC1` (relative stereo) [Compound 18, 4-[8-(Cyclopropylmethyl-methyl-amino)-7-ethyl-5-methyl-6-oxo-5,6,7,8-tetrahydro-pteridin-2-ylamino]-N-[trans-4-(4-cyclopropylmethyl-piperazin-1-yl)-cyclohexyl]-3-methoxy-benzamide], the IC50 was less than 1000 nM in test [1] (HT-29, 72 h); less than 1000 nM in test [2] (HCT-116, 72 h); less than 500 nM in test [3]; greater than 1000 nM in test [4].
With `CCCN(C)N1c2nc(Nc3ccc(C(=O)NC4CCN(C)CC4)cc3OC)ncc2N(C)C(=O)C1CC` (stereo not shown) [Compound 20, 4-[7-Ethyl-5-methyl-8-(methyl-propyl-amino)-6-oxo-5,6,7,8-tetrahydro-pteridin-2-ylamino]-3-methoxy-N-(1-methyl-piperidin-4-yl)-benzamide], the half-inhibitory concentration (IC50) is less than 1000 nM in test [1] (HT-29, 72 h); less than 1000 nM in test [2] (HCT-116, 72 h); less than 100 nM in test [3]; greater than 1000 nM in test [4].
Regarding `CCC1C(=O)N(C)c2cnc(Nc3ccc(C(=O)N[C@H]4CC[C@H](N5CCN(CC6CC6)CC5)CC4)cc3OC)nc2N1NC` (relative stereo) [Compound 31, N-[trans-4-(4-Cyclopropylmethyl-piperazin-1-yl)-cyclohexyl]-4-(7-ethyl-5-methyl-8-methylamino-6-oxo-5,6,7,8-tetrahydro-pteridin-2-ylamino)-3-methoxy-benzamide], the half-inhibitory concentration (IC50) is less than 1000 nM in test [1] (HT-29, 72 h); less than 1000 nM in test [2] (HCT-116, 72 h); less than 100 nM in test [3]; greater than 1000 nM in test [4].
Regarding `CCC1C(=O)N(C)c2cnc(Nc3ccc(C(=O)NC4CCN(C)CC4)cc3OC)nc2N1N(C)CC1CCCC1` (stereo not shown) [Compound 27, 4-[8-(Cyclopentylmethyl-methyl-amino)-7-ethyl-5-methyl-6-oxo-5,6,7,8-tetrahydro-pteridin-2-ylamino]-3-methoxy-N-(1-methyl-piperidin-4-yl)-benzamide], the half-inhibitory concentration (IC50) was less than 1000 nM in test [1] (HT-29, 72 h); less than 1000 nM in test [2] (HCT-116, 72 h); less than 100 nM in test [3]; greater than 1000 nM in test [4].
Regarding `CCC1C(=O)N(C)c2cnc(Nc3ccc(C(=O)NC4CCN(C)CC4)cc3OC)nc2N1N(C)CC1CC1` (stereo not shown) [Compound 17, 4-[8-(Cyclopropylmethyl-methyl-amino)-7-ethyl-5-methyl-6-oxo-5,6,7,8-tetrahydro-pteridin-2-ylamino]-3-methoxy-N-(1-methyl-piperidin-4-yl)-benzamide], the concentration for half-maximal inhibition (IC50) in test [1] (HT-29, 72 h) was less than 1000 nM; in test [2] (HCT-116, 72 h), less than 1000 nM; in test [3], less than 500 nM; in test [4], greater than 1000 nM.
Take `CCC1C(=O)N(C)c2cnc(Nc3ccc(C(=O)NC4CCN(C(C)C)CC4)cc3OC)nc2N1N(C)C` (stereo not shown) [Compound 4, 4-(8-Dimethylamino-7-ethyl-5-methyl-6-oxo-5,6,7,8-tetrahydro-pteridin-2-ylamino)-N-(1-isopropyl-piperidin-4-yl)-3-methoxy-benzamide]: the IC50 is less than 1000 nM in test [1] (HT-29, 72 h); less than 1000 nM in test [2] (HCT-116, 72 h); less than 100 nM in test [3]; greater than 1000 nM in test [4].
As for `CCC1C(=O)N(C)c2cnc(Nc3ccc(C(=O)N[C@H]4CC[C@H](N5CCN(CC6CC6)CC5)CC4)cc3OC)nc2N1N(C)CC(C)C` (relative stereo) [Compound 24, N-[trans-4-(4-Cyclopropylmethyl-piperazin-1-yl)-cyclohexyl]-4-[7-ethyl-8-(isobutyl-methyl-amino)-5-methyl-6-oxo-5,6,7,8-tetrahydro-pteridin-2-ylamino]-3-methoxy-benzamide], the IC50 was less than 1000 nM in test [1] (HT-29, 72 h); less than 1000 nM in test [2] (HCT-116, 72 h); less than 100 nM in test [3]; greater than 1000 nM in test [4].
With `CCC1C(=O)N(C)c2cnc(Nc3ccc(C(=O)N[C@H]4CC[C@H](N5CCN(CC6CC6)CC5)CC4)cc3OC)nc2N1N(C)CC1CCCC1` (relative stereo) [Compound 28, 4-[8-(Cyclopentylmethyl-methyl-amino)-7-ethyl-5-methyl-6-oxo-5,6,7,8-tetrahydro-pteridin-2-ylamino]-N-[trans-4-(4-cyclopropylmethyl-piperazin-1-yl)-cyclohexyl]-3-methoxy-benzamide], the 50% inhibitory concentration (IC50) was less than 1000 nM in test [1] (HT-29, 72 h); less than 1000 nM in test [2] (HCT-116, 72 h); less than 100 nM in test [3]; greater than 1000 nM in test [4].
For the compound `CCC1C(=O)N(C)c2cnc(Nc3ccc(C(=O)NCC4CCN(CC)CC4)cc3OC)nc2N1NC` (stereo not shown) [Compound 32, 4-(7-Ethyl-5-methyl-8-methylamino-6-oxo-5,6,7,8-tetrahydro-pteridin-2-ylamino)-N-(1-ethyl-piperidin-4-ylmethyl)-3-methoxy-benzamide], the IC50 in test [1] (HT-29, 72 h) was less than 1000 nM; in test [2] (HCT-116, 72 h), less than 1000 nM; in test [3] it was less than 500 nM; in test [4], greater than 1000 nM.
Turning to `CCC1C(=O)N(C)c2cnc(Nc3ccc(C(=O)NCC4CCN(CC)CC4)cc3OC)nc2N1N(C)C` (stereo not shown) [Compound 3, 4-(8-Dimethylamino-7-ethyl-5-methyl-6-oxo-5,6,7,8-tetrahydro-pteridin-2-ylamino)-N-(1-ethyl-piperidin-4-ylmethyl)-3-methoxy-benzamide], the IC50 was less than 1000 nM in test [1] (HT-29, 72 h); less than 1000 nM in test [2] (HCT-116, 72 h); less than 100 nM in test [3]; greater than 1000 nM in test [4].
`CCC1C(=O)N(C)c2cnc(Nc3ccc(C(=O)NCc4ccc(N5CCN(C)CC5)cc4)cc3OC)nc2N1N(C)C` (stereo not shown) [Compound 11, 4-(8-Dimethylamino-7-ethyl-5-methyl-6-oxo-5,6,7,8-tetrahydro-pteridin-2-ylamino)-3-methoxy-N-[4-(4-methyl-piperazin-1-yl)-benzyl]-benzamide]: the IC50 in test [1] (HT-29) is less than 1000 nM; in test [2] (HCT-116) it was less than 1000 nM; in test [3], less than 100 nM; in test [4] it was greater than 1000 nM.
